In ChEMBL document CHEMBL5647692, “The novel dual PI3K/mTOR inhibitor NVP-BGT226 displays cytotoxic activity in both normoxic and hypoxic hepatocarcinoma cells” (Oncotarget, 2015) one finds inhibition, Activity and IC50 data, which are given here for one molecule.

A short description of experiment [1]: Inhibition of PI3K/Akt/mTOR signaling pathway in human HepG2 cells assessed as reduction in phosphorylation of mTORC1/2 incubated for 1 hr under normoxia condition by Western blotting analysis. The settings on record: dose 0.25-1 µM. Type of experiment: cell-based. On the technique in general: In western blotting, separated proteins are transferred to a membrane and probed.

Experiment [2] is described as follows: Inhibition of PI3K/Akt/mTOR signaling pathway in human SNU-475 cells assessed as reduction in S6 phosphorylation at 1 to 10 nM incubated for 1 hr under normoxia condition by Western blotting analysis. The format is cell-based. Particulars: dose 1-10 nM.
Experiment [3] relates to SNU-449. Nature of the experiment: Induction of apoptosis in human SNU-449 cells assessed as late apoptotic cells at 1.5 uM incubated for 24 hrs by Annexin-V/7-AAD staining based muse cell analyzer method (reference value: 5.03 %). Type of experiment: functional.
Experiment [4] can be described thus: Inhibition of PI3K/Akt/mTOR signaling pathway in human SNU-475 cells assessed as reduction in phosphorylation of GSK3 alpha/beta incubated for 1 hr under normoxia condition by Western blotting analysis. Type of experiment: cell-based. The settings on record: dose 0.25-1 µM.
Experiment [5] relates to SNU-475. Briefly: Cytotoxicity against human SNU-475 cells assessed as reduction in cell viability incubated for 48 hrs by MTT assay. The format is functional, cell-based. Particulars: SNU-475, 48 h. On the technique in general: Formazan colour is commonly taken as a measure of viable cells.
The test system of experiment [6] is SNU-475. Nature of the experiment: Cytotoxicity against human SNU-475 cells assessed as reduction in cell viability incubated for 24 hrs under hypoxia condition by MTT assay. Type of experiment: functional, cell-based.
The test system of experiment [7] is SNU-449. Nature of the experiment: Induction of apoptosis in human SNU-449 cells assessed as viable cells at IC50 concentration incubated for 24 hrs in presence of Z-VAD-fmk by Annexin-V/7-AAD staining based muse cell analyzer method (reference value: 90.07 %). Type of experiment: functional.
Experiment [8] in a line: Inhibition of PI3K/Akt/mTOR signaling pathway in human Hep3B cells assessed as reduction in phosphorylation of mTORC1/2 incubated for 1 hr under normoxia condition by Western blotting analysis. The format is cell-based. Particulars: dose 0.25-1 µM.
The next experiment relates to Mahlavu. Nature of the experiment: Induction of autophagy in human Mahlavu cells assessed as upregulation of LC3A/B II level by Western blot analysis. The format is functional, cell-based. Particulars: dose 0.1-0.5 µM.
Another experiment relates to Hep 3B2. Briefly: Induction of cell cycle arrest in human Hep3B cells assessed as decrease in accumulation of cells in G2/M phase incubated at 0.01 to 0.1 uM for 24 hrs by propidium iodide staining based muse cell analysis. Type of experiment: functional. Particulars: dose 0.01-0.1 µM.

pIC50: −log10 of the molar value. The source made the active and inactive calls. The calls are words filed in the database; no cut-off is given here.

Usually pIC50 stands for −log10 of the IC50, conventionally taken in molar units. For `COc1ccc(-c2ccc3ncc4c(c3c2)n(-c2ccc(N3CCNCC3)c(C(F)(F)F)c2)c(=O)n4C)cn1` [BGT-226 FREE BASE], the inhibition result in experiment [1], in [4] and in experiment [8] was “Dose-Dependent Effect” each time. Also, the inhibition result in [2] is “Active”. In addition, the results for the Activity in the experiment with SNU-449 [3], in the experiment on SNU-449 [7] and with Mahlavu were 32.14%, 83.56% and “Dose-Dependent Effect”, respectively. Besides, the negative-log IC50 (pIC50) with SNU-475 [5] was 6.00. The result in the experiment on SNU-475 [6] and in the experiment on Hep 3B2 was Active.
